# Results from paper PMC5612656, “In vitro and in vivo effects of 2,4 diaminoquinazoline inhibitors of the decapping scavenger enzyme DcpS: Context-specific modulation of SMN transcript levels” (PLoS ONE, 2017).
# “And” between values parts separate entries of the source, which are not always exact repeats. Equal entries are not always repeated.
# Experiments:
# 2B/- SMA mice [1] = details: cited from earlier work
# N2a cells = assay: RNA-Seq (polyA RNA) of N2a neuroblastoma cells; format: cell-based, mouse
# Protocol: Cells were then pelleted and lysed in RLT and the RNA was purified according to the protocol for the Qiagen miRNeasy kit to separate and enrich small RNA and large (>200 nt) fractions separately. […] RNA quality was also validated using qPCR for DcpS responsive genes. RNA fractions were used for cDNA library preparation which was performed using Truseq mRNA v2 reagents or TailorMix miRNA reagents (RS-122-2101 Illumina, San Diego CA, USA and TM302 Seqmatic, Fremont CA, USA). Libraries were run on a Nextseq 500 (Illumina) using a paired-end run (2x75bp) generating ~60 million reads per library for the mRNA-seq and 1x75bp generating ~5 million reads per library for the miRNA-seq. Demultiplexing, alignment, and differential analysis for the mRNA-seq were performed as described below. For the miRNA alignment, briefly the sequences between 16 and 35 nucleotides with average phred score ≥ 30 were retained for analysis. The reads were first mapped to mouse miRNAs using Bowtie without allowing for mismatches. Instead of discarding the remaining reads, we explored the possibilities of RNA editing to include potential isomiRs. These reads were mapped to miRNAs that have at most 1 base mismatch, a substitution at the 5’ or 3’ ends, or have 1 or 2 extra bases at either ends. Although 1 base mismatch would include 1 base substitution/deletion/addition at the ends, we made sure that 1 base mismatch was inside the miRNA and that all categories were mutually exclusive. Reads mapping to protein coding exons and other small RNAs were removed prior to mapping to miRNAs. Reads that uniquely mapped to miRNAs were considered and were profiled as: 1) identical to miRNAs, 2) perfect match to miRNAs but are of shorter length (no more than 5 bases short), 3) mapping to miRNAs with 1 substitution, 1 or 2 extra bases at 3’ and 5’ ends and with those with at most 1 mismatch (occurring inside the sequence and not on ends), 4) mapping to the precursor miRNA. Thus, steps 2–4 constitute “IsomiRs”-alternative forms of the mature miRNAs. We merged the counts of reads identical to a miR and those mapping to isomeric forms as they are found to have identical/very similar functions. The unaligned reads were mapped to the mouse genome and an internally developed database of rRNAs from bacteria, fungi, plant and eukaryotes to detect presence of contaminants. For differential analysis of miRNAs, only those with counts of ≥5 in at least 1/3rd samples (treatment vs control) were considered for analysis. The counts were normalized and analyzed using EdgeR [19] packages in R-Bioconductor. The P-values were corrected by FDR for multiple testing and miRNAs with FDR ≤15% and |FC|>1.5 were considered to be differentially expressed.
# The differentially regulated gene lists for both the spinal cord mRNA-seq and the N2a mRNA-seq results with a corrected P-value less than 0.05 were loaded into IPA and analyzed against the Ingenuity Knowledgebase, Ingenuity Expert Information, and with experimentally observed confidence.
# [2] = tested on: Renilla luciferase driven by the CMV promoter; assay: Reporter gene assay, CMV-driven Renilla luciferase; format: cell-based; details: 24 hrs
# Protocol: The SMN2 reporter cell line was cultured in high-glucose DMEM supplemented with 10% (v/v) fetal bovine serum (FBS) and 1X Penicillin/Streptomycin. Reporter cells media was supplemented with hygromycin during maintenance. All cells were maintained at 37°C and […]. After seeding in 96-well white tissue culture plates at 25,000 per well, cells were incubated overnight before being exposed to different doses of compounds or DMSO for 24 hrs. The final DMSO concentration was kept constant at 0.1% (v/v). Firefly and renilla luciferase expression were assayed with DualGlo (Promega E2920) and measured on a PHERAstar FS microplate reader (BMG Labtech). Relative light units are normalized to DMSO control and expressed as a percentage.
# 2B/- SMA mice [3] = assay: Combined 55° negative geotaxis/climb test in 2B/- SMA mice; format: in vivo, mouse
# [4] = 1 μM, 24 hours, 18,409 detectable
# [5] = P16, Fisher's exact test P-value = 0.0708
smiles,measurement,setting,value
Nc1nc(N)c2c(OCC3CCN(Cc4c(Cl)cccc4Cl)CC3)cccc2n1 [RG3039],Gems in nuclear compartment of choline acetyltransferase-positive spinal cord neurons,2B/- SMA mice [1],reported to increase
same,SMN protein levels in the CNS or peripheral tissues,2B/- SMA mice [1],absence of any change in SMN protein levels
same,"survival, motor function, neuromuscular junction architecture and electrophysiology",2B/- SMA mice [1],"improve survival, motor function, neuromuscular junction architecture and electrophysiology"
same,tissue DcpS activity,2B/- SMA mice [1],profound and prolonged inhibition
same,differential expression of Smn and DcpS,"N2a cells; 1 μM, 24 hours",neither Smn nor DcpS itself were differentially expressed
same,down-regulated genes as share of differentially expressed genes,"N2a cells; 1 μM, 24 hours",41.7%
same,genes changed by less than one Log2 units (2-fold) in either direction,"N2a cells; 1 μM, 24 hours","1,489 genes"
same,"genes changed by less than one Log2 units (2-fold), share","N2a cells; 1 μM, 24 hours",70.9%
same,genes changed by more than 2 log2 units (4-fold) in either direction,"N2a cells; 1 μM, 24 hours",80 genes
same,"genes changed by more than 2 log2 units (4-fold), share","N2a cells; 1 μM, 24 hours",3.8%
same,genes down-regulated by compound (P < 0.05),"N2a cells; 1 μM, 24 hours",878 genes
same,"pathways significantly affected (P < 0.05), Ingenuity Pathway Analysis","N2a cells; 1 μM, 24 hours",53 pathways
same,proportion of detectable genes affected,"N2a cells; 1 μM, 24 hours",> 11% and 11.4%
same,upregulated genes as share of differentially expressed genes,"N2a cells; 1 μM, 24 hours",58.3%
same,down-regulated genes as percentage of total detectable genes,N2a cells; [4],4.77%
same,upregulated genes as percentage of total detectable genes,N2a cells; [4],6.66%
same,genes differentially expressed compared to DMSO (P < 0.05),"N2a cells; 1 μM, 24 hours, 18,409 detectable genes","2,104 genes"
same,"log2(fold-change), gene 1600020E01Rik","N2a cells; RG3039 vs DMSO, adjusted p-value 1.05E-117",2.871
same,"log2(fold-change), gene Krcc1","N2a cells; RG3039 vs DMSO, adjusted p-value 1.14E-85",-2.734
same,"log2(fold-change), gene Apba1","N2a cells; RG3039 vs DMSO, adjusted p-value 1.54E-112",-5.025
same,"log2(fold-change), gene Rnf157","N2a cells; RG3039 vs DMSO, adjusted p-value 3.09E-99",-3.057
same,"log2(fold-change), gene Stra6","N2a cells; RG3039 vs DMSO, adjusted p-value 4.32E-66",-2.291
same,Paqr8 log2 fold change,"N2a cells; decreased, P = 0.00251",0.657
same,Dpm3 log2 fold change,"N2a cells; increased, P = 0.000012",0.884
same,Pigw log2 fold change,"N2a cells; increased, P = 1.89 x 10^−30",1.54
same,effect on CMV-driven Renilla luciferase activity,[2],strong effect
same,"simultaneous pass rate, 55° negative geotaxis and climb test","2B/- SMA mice [3]; 2B/- SMA mice at P16, combined sexes",about 78%
same,improvement in ability to pass the combined assay over vehicle SMA mice,2B/- SMA mice [3]; [5],~40%
same,statistical significance of improvement over vehicle SMA mice in combined test,2B/- SMA mice [3]; [5],showed improvement over vehicle SMA mice that did not reach statistical significance
